Assay results published in patent publication US5367078A, “3-oxadiazolyl-1,6-naphthyridine derivatives” (Dainippon Pharmaceutical Co., Ltd., priority 1992, dated 1994).

Tests used:
[1] = test system: pentylenetetrazole-induced clonic convulsion; assay: Activity on pentylenetetrazole-induced clonic convulsion (anti-PTZ activity); assay type: in vivo, mouse (Std-ddY male); conditions: Mus musculus, 2 hours before pentylenetetrazole 85 mg/kg s.c., observed 30 minutes, read-out: Number of mice having antagonistic activity/number of test mice (converted); for responders at 50 mg/kg: 50 mg/kg oral; for responders at 10 mg/kg: 10 mg/kg oral; for responders at 2 mg/kg: 2 mg/kg oral; for responders at 20 mg/kg: 20 mg/kg oral
Method: Experiment 2 Activity on pentylenetetrazole-induced clonic convulsion (anti-PTZ activity)
The activity on pentylenetetrazole-induced clonic convulsion of the test compound was tested according to the method of E. A. Swinyard (cf. Anticonvulsant Drugs. Mercier, J., Ed., pp. 47-65, Pergamon Press, New York (1973)). In this test, petit real-type antiepileptics and most of benzodiazepine drugs show positive results.
A test compound was administered orally to Std-ddY male mice (weight; 20-25 g, five mice/group). […] When no clonic convulsion was observed, it was determined that the test compound had antagonistic activity.

benzodiazepine receptor = assay: Benzodiazepine receptor binding assay ([^3 H]-diazepam); conditions: [^3 H]-diazepam 1.5 nM, rat brain crude synaptosome membrane, pH 7.4, 0° C., 20 minutes

| Structure (SMILES) | IC50 (benzodiazepine receptor) | further results |
| --- | --- | --- |
| COc1ccc(CN2CCc3[nH]c(=O)c(-c4nnc(C5CC5)o4)cc3C2)cc1 [Example 85] |  | responders at 50 mg/kg [1]: 80% |
| COc1nnc(-c2cc3c([nH]c2=O)CCN(Cc2ccccc2C(F)(F)F)C3)o1 [Example 33] |  | responders at 10 mg/kg [1]: 80% |
| CCCc1noc(-c2cc3c([nH]c2=O)CCN(Cc2ccccc2)C3)n1 [Example 147] | 2.5 nM |  |
| O=c1[nH]c2c(cc1-c1nc(-c3cccs3)no1)CN(Cc1ccccc1)CC2 [Example 145] | 8.64 nM |  |
| CCCc1nc(-c2cc3c([nH]c2=O)CCN(Cc2ccccc2)C3)no1 [Example 125] | 8.63 nM |  |
| CCc1nc(-c2cc3c([nH]c2=O)CCN(Cc2ccccc2)C3)no1 [Example 120] | 4.4 nM | responders at 10 mg/kg [1]: 90% |
| COc1nnc(-c2cc3c([nH]c2=O)CCN(Cc2cc(F)ccc2Br)C3)o1 [Example 38] | 4.55 nM | responders at 2 mg/kg [1]: 80% |
| Cc1cc(-c2nnc(-c3cc4c([nH]c3=O)CCN(Cc3ccccc3)C4)o2)no1 [Example 66] | 10.1 nM | responders at 50 mg/kg [1]: 100% |
| O=c1[nH]c2c(cc1-c1nnc(C3CC3)o1)CN(Cc1ccccc1F)CC2 [Example 89] |  | responders at 50 mg/kg [1]: 100% |
| Cc1cccc(CN2CCc3[nH]c(=O)c(-c4nc(C5CC5)no4)cc3C2)c1 [Example 160] | 3.75 nM |  |
| CC(C)c1noc(-c2cc3c([nH]c2=O)CCN(Cc2ccccc2)C3)n1 [Example 146] | 9.11 nM |  |
| Cc1nc(-c2cc3c([nH]c2=O)CCN(Cc2ccccc2)C3)no1 [Example 122] | 5.96 nM | responders at 10 mg/kg [1]: 100% |
| O=c1[nH]c2c(cc1-c1nc(C3CC3)no1)CN(Cc1ccccc1Br)CC2 [Example 155] | 6.08 nM |  |
| O=c1[nH]c2c(cc1-c1nc(C3CC3)no1)CN(Cc1ccc(Cl)cc1)CC2 [Example 154] | 11 nM |  |
| O=c1[nH]c2c(cc1-c1nc(-c3ccccc3)no1)CN(Cc1ccccc1)CC2 [Example 141, 6-benzyl-3-(3-phenyl-1,2,4-oxadiazol-5-yl)-5,6,7,8-tetrahydro-1,6-naphthyridin-2(1H)-one] | 22.8 nM |  |
| O=c1[nH]c2c(cc1-c1noc(-c3ccccc3)n1)CN(Cc1ccccc1)CC2 [Example 121] | 62.4 nM |  |
| CC(C)c1nc(-c2cc3c([nH]c2=O)CCN(Cc2ccccc2)C3)no1 [Example 124] | 5.4 nM | responders at 10 mg/kg [1]: 60% |
| O=c1[nH]c2c(cc1-c1nc(C3CC3)no1)CN(Cc1cccc(F)c1)CC2 [Example 158] | 3.73 nM |  |

| Structure (SMILES) | IC50 (benzodiazepine receptor) | further results |
| --- | --- | --- |
| O=c1[nH]c2c(cc1-c1nnc(-c3cccs3)o1)CN(Cc1ccccc1)CC2 [Example 60] | 1.58 nM | responders at 50 mg/kg [1]: 100% |
| COc1nnc(-c2cc3c([nH]c2=O)CCN(Cc2cccc(F)c2)C3)o1 [Example 13] |  | responders at 20 mg/kg [1]: 100% |
| O=c1[nH]c2c(cc1-c1nnc(-c3ccccc3)o1)CN(Cc1ccccc1)CC2 [Example 58] | 14.6 nM |  |
| O=c1[nH]c2c(cc1-c1nnc(C3CC3)o1)CN(Cc1cccc(Cl)c1)CC2 [Example 83] |  | responders at 50 mg/kg [1]: 100% |
| COc1cccc(CN2CCc3[nH]c(=O)c(-c4nnc(OC)o4)cc3C2)c1 [Example 17] |  | responders at 20 mg/kg [1]: 60% |
| C=C(C)c1nnc(-c2cc3c([nH]c2=O)CCN(Cc2ccccc2)C3)o1 [Example 111, 6-benzyl-3-(5-isopropenyl-1,3,4-oxadazol-2-yl)-5,6,7,8-tetrahydro-1,6-naphthyridin-2(1H)-one] |  | responders at 50 mg/kg [1]: 100% |
| O=c1[nH]c2c(cc1-c1nc(C3CC3)no1)CN(Cc1cccc(Cl)c1)CC2 [Example 153] | 3.51 nM |  |
| COc1nnc(-c2cc3c([nH]c2=O)CCN(Cc2c(F)ccc(F)c2F)C3)o1 [Example 36] |  | responders at 2 mg/kg [1]: 100% |
| O=c1[nH]c2c(cc1-c1nnc(C3CC3)o1)CN(Cc1ccccc1)CC2 [Example 55, 6-benzyl-3-(5-cyclopropyl-1,3,4-oxadiazol-2-yl)-5,6,7,8-tetrahydro-1,6-naphthyridin-2(1H)-one] | 3.91 nM | responders at 50 mg/kg [1]: 100% |
| Cc1ccc(CN2CCc3[nH]c(=O)c(-c4nnc(C5CC5)o4)cc3C2)cc1 [Example 80] |  | responders at 50 mg/kg [1]: 80% |
| O=c1[nH]c2c(cc1-c1nnc(-c3ccco3)o1)CN(Cc1ccccc1)CC2 [Example 64] | 4.09 nM |  |
| O=c1[nH]c2c(cc1-c1nc(C3CC3)no1)CN(Cc1ccccc1)CC2 [Example 143] | 2.19 nM | responders at 10 mg/kg [1]: 60% |
| COc1nnc(-c2cc3c([nH]c2=O)CCN(Cc2c(F)cccc2F)C3)o1 [Example 35] |  | responders at 2 mg/kg [1]: 100% |
| O=c1[nH]c2c(cc1-c1nc(C3CC3)no1)CN(Cc1cccc(Br)c1)CC2 [Example 156] | 6.68 nM |  |
| CCc1noc(-c2cc3c([nH]c2=O)CCN(Cc2ccccc2)C3)n1 [Example 142] | 3.24 nM | responders at 10 mg/kg [1]: 80% |
| O=c1[nH]c2c(cc1-c1noc(C3CC3)n1)CN(Cc1ccccc1)CC2 [Example 119, 6-benzyl-3-(5-cyclopropyl-1,2,4-oxadiazol-3-yl)-5,6,7,8-tetrahydro-1,6-naphthyridin-2(1H)-one] | 1.29 nM | responders at 10 mg/kg [1]: 100% |
| COc1nnc(-c2cc3c([nH]c2=O)CCN(Cc2cccc([N+](=O)[O-])c2)C3)o1 [Example 23] |  | responders at 10 mg/kg [1]: 80% |
| O=c1[nH]c2c(cc1-c1noc(-c3cccs3)n1)CN(Cc1ccccc1)CC2 [Example 123] | 12.5 nM |  |

Second part, led by results:

| IC50 (benzodiazepine receptor) | Structure (SMILES) | further results |
| --- | --- | --- |
| 50.3 nM | O=c1[nH]c2c(cc1-c1nnc(C(F)(F)F)o1)CN(Cc1ccccc1)CC2 [Example 115] |  |
| 13.8 nM | CCCc1nnc(-c2cc3c([nH]c2=O)CCN(Cc2ccccc2)C3)o1 [Example 62] |  |
| 9.91 nM | COc1nnc(-c2cc3c([nH]c2=O)CCN(Cc2ccccc2)C3)o1 [Example 6, 6-benzyl-3-(5-methoxy-1,3,4-oxadiazol-2-yl)-5,6,7,8-tetrahydro-1,6-naphthyridine-2(1H)-one] | responders at 50 mg/kg [1]: 100% |
| 4.9 nM | O=c1[nH]c2c(cc1-c1nc(C3CC3)no1)CN(Cc1ccccc1Cl)CC2 [Example 152] |  |
| 13.5 nM | COc1nnc(-c2cc3c([nH]c2=O)CCN(Cc2ccc(Cl)cc2)C3)o1 [Example 7] | responders at 50 mg/kg [1]: 100% |
| 2.71 nM | O=c1[nH]c2c(cc1-c1nc(C3CC3)no1)CN(Cc1ccccc1F)CC2 [Example 157] |  |
| 8.15 nM | Cc1ccccc1CN1CCc2[nH]c(=O)c(-c3nc(C4CC4)no3)cc2C1 [Example 159] |  |
| 4.62 nM | O=c1[nH]c2c(cc1-c1nnc(C3CC3)o1)CN(Cc1cccc(F)c1)CC2 [Example 88] |  |
| 5.17 nM | Cc1cccc(CN2CCc3[nH]c(=O)c(-c4nnc(C5CC5)o4)cc3C2)c1 [Example 81] |  |
| 19.3 nM | COc1nnc(-c2cc3c([nH]c2=O)CCN(Cc2cc(F)ccc2Cl)C3)o1 [Example 52] | responders at 10 mg/kg [1]: 100% |
| 6.95 nM | COc1nnc(-c2cc3c([nH]c2=O)CCN(Cc2ccccc2Cl)C3)o1 [Example 10] | responders at 20 mg/kg [1]: 100% |
| 8.98 nM | O=c1[nH]c2c(cc1-c1nnc(C3CC3)o1)CN(Cc1ccc(Cl)cc1)CC2 [Example 82] |  |
| 23.1 nM | CCc1nnc(-c2cc3c([nH]c2=O)CCN(Cc2ccccc2)C3)o1 [Example 91] | responders at 50 mg/kg [1]: 100% |
| 2.49 nM | COc1nnc(-c2cc3c([nH]c2=O)CCN(Cc2cccc(Cl)c2F)C3)o1 [Example 32] |  |
| 6.25 nM | O=c1[nH]c2c(cc1-c1nnc(-c3ccccc3Cl)o1)CN(Cc1ccccc1)CC2 [Example 61] |  |
| 5.46 nM | COc1nnc(-c2cc3c([nH]c2=O)CCN(Cc2cccc(F)c2F)C3)o1 [Example 29] |  |
| 7.91 nM | COc1cccc(CN2CCc3[nH]c(=O)c(-c4nnc(C5CC5)o4)cc3C2)c1 [Example 86] |  |
| 14.1 nM | COc1nnc(-c2cc3c([nH]c2=O)CCN(Cc2ccccc2Br)C3)o1 [Example 26] | responders at 2 mg/kg [1]: 60% |
| 35.1 nM | CC(C)c1nnc(-c2cc3c([nH]c2=O)CCN(Cc2ccccc2)C3)o1 [Example 56] | responders at 50 mg/kg [1]: 80% |
